Experimental data as given in ChEMBL document CHEMBL1124620, “New 1,4-dihydropyridine derivatives combining calcium antagonism and alpha-adrenolytic properties” (J Med Chem, 1989).

Experiments:
[1] = biological target: T1, Adrenergic receptor alpha-2 (Homo sapiens, UniProt P08913+P18825+P18089); assay: In vitro ability to inhibit norepinephrine binding to alpha-2 adrenergic receptor of guinea pig vas deferens; assay type: tissue-based, Cavia porcellus; settings: target entry is the homologue from another species
T1 sequence (P08913 whole entry): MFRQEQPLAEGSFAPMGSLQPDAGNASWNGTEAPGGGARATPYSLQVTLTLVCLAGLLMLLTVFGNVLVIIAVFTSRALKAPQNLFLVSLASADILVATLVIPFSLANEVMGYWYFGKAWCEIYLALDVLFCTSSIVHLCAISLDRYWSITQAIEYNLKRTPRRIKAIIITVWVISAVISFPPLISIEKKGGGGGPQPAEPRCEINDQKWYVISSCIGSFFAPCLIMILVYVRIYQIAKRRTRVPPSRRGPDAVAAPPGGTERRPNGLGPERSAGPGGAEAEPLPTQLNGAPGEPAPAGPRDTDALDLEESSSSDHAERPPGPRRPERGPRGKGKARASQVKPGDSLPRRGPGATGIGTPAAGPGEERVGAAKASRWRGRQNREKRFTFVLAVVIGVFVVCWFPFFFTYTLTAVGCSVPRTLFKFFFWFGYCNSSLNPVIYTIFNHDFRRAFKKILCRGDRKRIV
T1 sequence (P18825 whole entry): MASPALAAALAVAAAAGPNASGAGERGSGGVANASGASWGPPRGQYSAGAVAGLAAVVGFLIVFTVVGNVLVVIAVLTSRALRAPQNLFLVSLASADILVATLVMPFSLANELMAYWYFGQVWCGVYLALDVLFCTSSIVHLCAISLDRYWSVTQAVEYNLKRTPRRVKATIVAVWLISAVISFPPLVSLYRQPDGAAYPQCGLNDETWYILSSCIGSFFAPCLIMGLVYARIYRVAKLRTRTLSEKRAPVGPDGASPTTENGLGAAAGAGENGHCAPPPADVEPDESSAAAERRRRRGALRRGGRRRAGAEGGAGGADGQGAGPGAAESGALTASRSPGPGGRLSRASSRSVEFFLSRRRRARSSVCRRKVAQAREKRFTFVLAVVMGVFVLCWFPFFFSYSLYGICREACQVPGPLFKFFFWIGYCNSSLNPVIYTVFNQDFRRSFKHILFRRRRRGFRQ
T1 sequence (P18089 whole entry): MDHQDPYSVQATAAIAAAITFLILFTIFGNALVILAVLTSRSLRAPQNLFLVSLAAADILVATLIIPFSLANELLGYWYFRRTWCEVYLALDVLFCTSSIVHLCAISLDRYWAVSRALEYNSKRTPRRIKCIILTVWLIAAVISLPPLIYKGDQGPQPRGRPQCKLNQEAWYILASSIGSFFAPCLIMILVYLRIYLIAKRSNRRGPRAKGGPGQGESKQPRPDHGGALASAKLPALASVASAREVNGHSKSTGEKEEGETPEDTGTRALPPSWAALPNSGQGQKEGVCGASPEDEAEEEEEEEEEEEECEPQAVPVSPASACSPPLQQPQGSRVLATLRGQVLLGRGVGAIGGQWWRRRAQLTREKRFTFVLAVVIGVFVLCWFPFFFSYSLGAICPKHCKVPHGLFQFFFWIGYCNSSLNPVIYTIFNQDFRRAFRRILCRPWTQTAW

[2] = biological target: T2, Adrenergic receptor alpha-2 (Rattus norvegicus, UniProt P22086+P19328+P22909); assay: Ability to inhibit [3H]yohimbine binding to alpha-2 adrenergic receptor of rat cerebral cortex preparation; assay type: tissue-based
T2 sequence (P22086 whole entry): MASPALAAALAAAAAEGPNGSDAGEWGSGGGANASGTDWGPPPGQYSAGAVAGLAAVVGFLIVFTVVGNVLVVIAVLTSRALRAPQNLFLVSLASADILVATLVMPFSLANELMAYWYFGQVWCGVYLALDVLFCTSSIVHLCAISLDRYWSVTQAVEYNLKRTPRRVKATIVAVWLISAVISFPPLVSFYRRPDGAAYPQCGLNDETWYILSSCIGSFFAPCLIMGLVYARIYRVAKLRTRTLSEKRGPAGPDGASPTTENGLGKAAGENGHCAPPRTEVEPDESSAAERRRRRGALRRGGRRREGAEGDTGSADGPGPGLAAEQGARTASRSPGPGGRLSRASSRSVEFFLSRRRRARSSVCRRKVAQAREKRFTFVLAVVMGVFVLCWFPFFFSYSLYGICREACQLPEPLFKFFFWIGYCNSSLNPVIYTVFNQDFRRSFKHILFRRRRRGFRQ
T2 sequence (P19328 whole entry): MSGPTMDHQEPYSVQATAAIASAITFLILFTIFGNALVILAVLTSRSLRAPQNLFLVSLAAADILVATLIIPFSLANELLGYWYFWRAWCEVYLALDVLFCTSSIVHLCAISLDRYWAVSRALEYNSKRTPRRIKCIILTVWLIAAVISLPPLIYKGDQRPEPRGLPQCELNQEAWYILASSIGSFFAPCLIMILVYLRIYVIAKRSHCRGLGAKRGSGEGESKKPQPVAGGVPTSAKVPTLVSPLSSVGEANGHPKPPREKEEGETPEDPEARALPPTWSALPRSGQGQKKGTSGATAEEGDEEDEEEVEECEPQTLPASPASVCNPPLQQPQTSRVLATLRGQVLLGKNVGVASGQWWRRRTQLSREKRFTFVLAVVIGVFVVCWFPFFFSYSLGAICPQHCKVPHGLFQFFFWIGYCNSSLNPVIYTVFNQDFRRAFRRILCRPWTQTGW
T2 sequence (P22909 whole entry): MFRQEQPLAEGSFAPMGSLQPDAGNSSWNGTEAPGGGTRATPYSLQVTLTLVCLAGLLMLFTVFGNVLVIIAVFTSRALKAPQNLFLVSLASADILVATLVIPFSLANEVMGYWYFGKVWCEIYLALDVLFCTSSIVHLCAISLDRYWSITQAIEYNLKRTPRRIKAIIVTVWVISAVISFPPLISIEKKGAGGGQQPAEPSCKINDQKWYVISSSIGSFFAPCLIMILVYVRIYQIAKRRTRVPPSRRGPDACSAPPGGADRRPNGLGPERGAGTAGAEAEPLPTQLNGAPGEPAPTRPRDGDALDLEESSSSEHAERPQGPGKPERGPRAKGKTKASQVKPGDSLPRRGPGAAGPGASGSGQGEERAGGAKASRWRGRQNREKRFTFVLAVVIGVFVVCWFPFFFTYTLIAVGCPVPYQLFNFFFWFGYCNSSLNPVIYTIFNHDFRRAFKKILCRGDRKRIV

Sus scrofa = organism: Sus scrofa; assay: Calcium antagonistic activity was evaluated from the inhibition of CaCl2-induced contraction of depolarized pig coronary artery; assay type: functional

IC50 [1]	IC50 [2] [nM]	IC50 (Sus scrofa; Sus scrofa, Coronary artery) [nM]	pA2 [1]	IC50 (Sus scrofa) [nM]	SMILES
>> 1e-6 M	1600	1000	–	–	CO/C(O)=C1\C(C)=NC(C)=C(C(=O)OCCN2CCC(n3c(O)nc4ccccc43)CC2)C1c1cccc([N+](=O)[O-])c1 (stereo not given)
>> 0.00001 M	470	3.8	–	–	CO/C(O)=C1\C(C)=NC(C)=C(C(=O)OC(C)CN(C)CC2COc3ccccc3O2)C1c1cccc([N+](=O)[O-])c1.Cl (stereo not given)
> 1e-06 M	270	4	–	–	CO/C(O)=C1\C(C)=NC(C)=C(C(=O)OCCN(C)CC2COc3ccccc3O2)C1c1ccccc1[N+](=O)[O-] (stereo not given)
–	480	13	6.7	–	CO/C(O)=C1\C(C)=NC(C)=C(C(=O)OCCN(C)C(C)COc2ccccc2)C1c1cccc([N+](=O)[O-])c1.Cl (stereo not given)
>> 1e-6 M	4000	–	–	1.5	COC(=O)C1=C(C)NC(C)=C(C(=O)OCCN(C)C[C@H]2COc3ccccc3O2)[C@@H]1c1cccc([N+](=O)[O-])c1.Cl (stereo in doubt; 6a)
> 1e-06 M	480	4.5	–	–	CO/C(O)=C1\C(C)=NC(C)=C(C(=O)OCCN(C)CC2COc3ccccc3O2)C1c1cccc([N+](=O)[O-])c1.Cl (stereo not given)
–	–	150	–	–	CC1=NC(C)=C(C(=O)OC(C)CN(C)CC2COc3ccccc3O2)C(c2cccc([N+](=O)[O-])c2)/C1=C(\O)OC(C)C.Cl (stereo not given)
> 0.0001 M	140	–	–	10	COC(=O)C1=C(C)NC(C)=C(C(=O)OCCN(C)C[C@H]2COc3ccccc3O2)[C@@H]1c1cccc([N+](=O)[O-])c1.Cl (stereo in doubt; 6b)
> 0.0001 M	16000	> 10000	–	–	CO/C(O)=C1\C(C)=NC(C)=C(C(=O)OCCN(C)C(c2ccccc2)C2CCCCC2)C1c1cccc([N+](=O)[O-])c1.Cl (stereo not given)
